# Test results published in US20240018120A1, “MAGL INHIBITORS” (H. LUNDBECK A/S, priority 2020, published 2024).
# Legend:
# MAGL [1] = molecular target: T1, MAGL (Rattus norvegicus, UniProt Q8R431); assay: MAGL IC50 values marked (rat) in Table 1; format: biochemical; settings: cell marked (rat) in the human PC3 column
# T1 sequence (Q8R431 1-303): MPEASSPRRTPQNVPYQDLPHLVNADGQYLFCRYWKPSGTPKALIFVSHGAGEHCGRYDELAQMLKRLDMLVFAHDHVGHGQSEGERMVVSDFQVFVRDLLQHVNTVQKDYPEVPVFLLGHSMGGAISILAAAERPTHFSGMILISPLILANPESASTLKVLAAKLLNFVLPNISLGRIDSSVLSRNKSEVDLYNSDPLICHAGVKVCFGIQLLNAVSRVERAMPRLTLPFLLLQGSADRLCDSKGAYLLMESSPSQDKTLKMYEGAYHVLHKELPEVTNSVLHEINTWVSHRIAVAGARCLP
# MAGL [2] = molecular target: T2, MAGL (Homo sapiens, UniProt Q99685); assay: In vitro competitive activity-based protein profiling, PC3 human cell membrane proteomes; format: biochemical; design: endogenous in cells; host or cells: PC3 human cells (membrane proteome); settings: human PC3 membrane proteome
# T2 sequence (Q99685 1-303): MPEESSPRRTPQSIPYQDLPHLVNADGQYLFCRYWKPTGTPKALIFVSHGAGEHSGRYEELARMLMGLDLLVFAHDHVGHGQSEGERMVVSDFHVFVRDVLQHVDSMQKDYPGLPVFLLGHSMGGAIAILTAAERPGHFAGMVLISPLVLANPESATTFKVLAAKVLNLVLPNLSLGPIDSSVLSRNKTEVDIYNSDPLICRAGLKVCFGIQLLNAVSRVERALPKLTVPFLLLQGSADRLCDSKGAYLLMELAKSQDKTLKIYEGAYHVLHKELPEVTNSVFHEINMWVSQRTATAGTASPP
# Method in brief: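 Competitive ABPP in PC3 membrane proteome (2.0 mg/mL protein): inhibitors preincubated 30 min at 37° C, then JW912-Bodipy probe added for 30 min at room temperature. MAGL band fluorescence after SDS-PAGE normalised to DMSO; IC50 from 4-parameter sigmoidal fit.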
# [3] = test system: maximal electroshock seizure threshold (MEST) model; assay: Maximal electroshock seizure threshold (MEST) model in the rat; format: in vivo; settings: 10 mg/kg p.o., 240 min pre-treatment
# Description: In the MEST model, a low-intensity electrical current of high frequency and short duration is applied to induce tonic convulsions.
# Animals were randomly assigned to vehicle, compound treatment or Lamotrigine dose groups. Animals were dosed at 5 mL/kg according to treatment groups (n=12 or 16/group), with either vehicle (0.5% MC) p.o. for Example 6, vehicle (10% HP-b-CD) for Example 8, test compound at 10 mg/kg p.o. 240 min pre-treatment time, or Lamotrigine p.o. 360 min pre-treatment time. Rats were individually assessed for production of a tonic hind limb extensor seizure following a single corneally delivered electroshock of 0.3 second duration, using an ‘up and down method’ of shock titration (Kimball A W et al., 1957). Thus, the first rat within a treatment group was given a shock at the expected or estimated CC50 current (current producing tonic hind limb extensor seizures in 50% of animals). […] This procedure was continued for all rats within a treatment group. Induction of seizure was measured as an all-or-nothing effect scored as either present (+) or absent (0) for each animal. […]
# Significant differences between drug-treated animals and controls were assessed according to Litchfield and Wilcoxon (1949) or One-Way ANOVA followed by Dunnett's multiple comparisons test.
# [4] = test system: cryopreserved human hepatocytes; assay: In vitro human hepatocyte stability; format: in vitro ADME; settings: human hepatocytes 0.5×10^6 cells/mL, 1 μM
# Description: The metabolic stability of test articles (1 μM) in commercially sourced, pooled donor, cryopreserved human hepatocytes (0.5×10^6 cells/mL) was determined in duplicate. The CLint reactions (250 μL) were initiated by addition of test compound. Aliquots (25 μL) were taken at 0, 15, 30, 45, 60, 90, 120 and 240 minutes and then protein crashed with ice-cold acetonitrile containing internal standard then centrifuged (3220 g for 25 minutes). Supernatant was used for LC-MS/MS analysis. The in vitro half-life (in vitro t½) was determined from the slope value: in vitro t1/2=−0.693/k. Conversion of the in vitro t1/2 (in min) into the scale-up unbound intrinsic clearance (Scaled-up unbound CLint, in mL/min/kg) was done using the following equation (mean of duplicate determinations), with data shown in Table 5: Scaled-up unbound CLint=kV/N×scaling factor. V=incubation volume (0.25 mL); N=number of hepatocytes per well ([…]). Scaling factors for in vivo intrinsic clearance prediction are listed below: […]
# [5] = test system: rat formalin paw model of inflammatory pain; assay: Rat formalin paw model of inflammatory pain; format: in vivo; settings: 4 h pre-test, vs vehicle
# Description: In the rat formalin paw model formalin is administered into the right […] of a rat in order to induce pain (observed by hind limb licking duration and frequency).
# Male Sprague Dawley rats were divided into three cohorts to enable testing in the Laboras™ equipment to be carried out over three days in a balanced design to give treatment groups of 10. On the day of the study, male Sprague Dawley rats were weighed, tail marked and dosed orally with vehicle, test compound (0.1, 0.3, 0.6, 1, 3 or 10 mg/kg) or pregabalin (30 mg/kg) 4 h pre-test using a 5 mL/kg dosing volume. For Example 6 the vehicle used was 0.5% methylcellulose in water and for Example 8 the vehicle used was 20% HP-b-CD. Up to six animals were dosed at a time. After 4 h, rats received an intraplantar injection of 50 μL of a 2.5% v/v formalin solution into the right hind paw. Rats were immediately placed into the Laboras™ cages and data acquisition started. The primary measures recorded by Laboras™ for the formalin paw model are hind limb licking duration and frequency. Locomotion is also reported as maximum speed, average speed when moving or over the whole-time bin and distance travelled. After 40 min, when data acquisition was complete, rats were removed from the cages.
# On removal from the test cages, rats were anaesthetised with the gaseous anaesthetic isoflurane (5% v/v isoflurane in oxygen) and blood samples were collected by cardiac puncture. Brains were then removed, rinsed in phosphate buffered saline (PBS), hemi-sected and frozen separately in liquid nitrogen.
# Data were analysed with Statistica software (TIBCO, USA version 11.1). All data are expressed as means±standard error of the mean (sem) to one decimal place. […] Time course data were analysed by repeated measures analysis of variance (ANOVA) followed by one-way ANOVAs at each time point and subsequent Dunnett's post hoc tests. […]
# [6] = test system: kainic acid seizure model; assay: Kainic acid seizure model in the rat; format: in vivo
# Description: Kainic acid is an analog of the excitatory neurotransmitter, glutamate and acts as an agonist of kainic acid receptors. After systemic injection, kainic acid induces prolonged excitatory responses with many of the features of human temporal lobe epilepsy.
# Rats, placed in individual Plexiglas cages (33×21×18 cm), are injected with kainic acid (20 mg/kg i.p.). The occurrences of the following symptoms are noted over a 120-minute period 30 minutes after kainic acid injection: forelimb clonus, rearings and rearings with falling, clonic convulsions, tonic convulsions and death. The presence of each symptom and the latencies to the first appearance of the symptoms are measured. The number of forelimb clonus is counted.
# 12 rats are studied per group. The test is performed partially blind.
# The test substances will be evaluated at multiple doses, administered p.o. 240 minutes before the test, and compared with the corresponding vehicle control group (Group 2, administered with 10% HP-b-CD in distilled water, p.o. 240 minutes before the test).
# Example 6 was evaluated at 0.3, 1, 3 and 10 mg/kg, and Example 8 was evaluated at 1, 3 and 10 mg/kg, administered p.o. 4 hours before the test, and compared with a vehicle control group (administered with 10% HP-b-CD, p.o. 4 hours before the test).
# Diazepam (16 mg/kg) used as reference substance, was administered p.o. 60 minutes before the test (0.5% HP-b-CD) and was compared with vehicle controls.
# Quantitative data (latencies) with the test substance was analyzed by comparing treated groups with vehicle control using Kruskal-Wallis test followed by Mann-Whitney U test. Quantitative data with the reference substance will be analysed using Mann-Whitney U test.
# Quantal data (frequencies) were analyzed by comparing treated groups with vehicle control using Fisher's Exact Probability tests.
IC50 (MAGL [1]),Compound,IC50 (MAGL [2]),anticonvulsant activity in the MEST (seizure threshold CC50) [3],Scaled-up unbound CLint [4],"measure of spontaneous pain (hind limb licking frequency) ([5]; 0.3 mg/kg and 0.6 mg/kg oral, late phase)","measure of spontaneous pain (hind limb licking frequency) ([5]; 1 mg/kg, 3 mg/kg and 10 mg/kg oral, both early and late phases)","anticonvulsant effects in the kainic acid seizure test ([6]; dose-range 1-10 mg/kg p.o., 4 hours before the test, rat)","magnitude of the effects in the kainic acid seizure test compared with reference ([6]; middle-high doses, reference Diazepam 16 mg/kg p.o.)"
0.0033 µM,"N#Cc1ccc(NC(=O)C2CC23CCN(C(=O)OC(C(F)(F)F)C(F)(F)F)CC3)cn1 (racemic) [Example 189, 1,1,1,3,3,3-hexafluoropropan-2-yl (+)1-((6-cyanopyridin-3-yl)carbamoyl)-6-azaspiro[2.5]octane-6-carboxylate]",,,,,,,
0.39 µM,"O=C(O)COc1ccc(NC(=O)C2CC23CCN(C(=O)OC(C(F)(F)F)C(F)(F)F)CC3)cn1 (single isomer, unassigned) [Example 183, (R or S)-2-((5-(6-(((1,1,1,3,3,3-hexafluoropropan-2-yl)oxy)carbonyl)-6-azaspiro[2.5]octane-1-carboxamido)pyridin-2-yl)oxy)acetic acid]",,,,,,,
,"O=C(NC1CCOCC1)[C@H]1CC12CCN(C(=O)OC(C(F)(F)F)C(F)(F)F)CC2 [Example 8, 1,1,1,3,3,3-Hexafluoropropan-2-yl (S)-1-((tetrahydro-2H-pyran-4-yl)carbamoyl)-6-azaspiro[2.5]octane-6-carboxylate]",0.0657 µM,anticonvulsant activity,7.75 mL/min/kg,statistically significant reduction,statistically significant reduction,clear anticonvulsant effects,"close to those observed with the reference substance, Diazepam"
